A short description of the test: Inhibition of Mycobacterium smegmatis arabinosyl transferase assessed as [14C]arabinofuranose incorporation.

For the compound `O[C@H]1[C@H](O)[C@@H](CN(CC2CCCCC2)CC2CCCCC2)O[C@@H]1CC[C@H]1O[C@H](CN(CC2CCCCC2)CC2CCCCC2)[C@@H](O)[C@@H]1O` [(2R,3S,4S,5R)-2-((bis(cyclohexylmethyl)amino)methyl)-5-(2-((2R,3S,4S,5R)-5-((bis(cyclohexylmethyl)amino)methyl)-3,4-dihydroxy-tetrahydrofuran-2-yl)ethyl)-tetrahydrofuran-3,4-diol], the IC50 came to 3.44 mM.

In the case of `O[C@H]1[C@H](O)[C@@H](CN(CC2CCCCC2)CC2CCCCC2)O[C@@H]1/C=C/[C@H]1O[C@H](CN(CC2CCCCC2)CC2CCCCC2)[C@@H](O)[C@@H]1O` [(2R,3S,4S,5R)-2-((bis(cyclohexylmethyl)amino)methyl)-5-(2-((2R,3S,4S,5R)-5-((bis(cyclohexylmethyl)amino)methyl)-3,4-dihydroxy-tetrahydrofuran-2-yl)vinyl)-tetrahydrofuran-3,4-diol], the IC50 worked out at 4.15 mM.

Consider `O[C@@H]1[C@@H](OC[C@H]2O[C@H](CN(CC3CCCCC3)CC3CCCCC3)[C@@H](O)[C@@H]2O)O[C@H](CN(CC2CCCCC2)CC2CCCCC2)[C@H]1O` [(2R,3S,4S,5R)-2-((bis(cyclohexylmethyl)amino)methyl)-5-(((2S,3S,4S,5R)-5-((bis(cyclohexylmethyl)amino)methyl)-3,4-dihydroxy-tetrahydrofuran-2-yloxy)methyl)-tetrahydrofuran-3,4-diol], for which the IC50 stood at 2.8 mM.

For the origin of these results see BindingDB's records for doi:10.1016/j.bmcl.2007.05.099 (Southern Research Institute, 2007).
